From patent US5071835A, “Ribonucleotide reductase inhibitors” (Bio-Mega Inc., priority 1989, dated 1991)
Non-standard residues stand in square brackets, D forms with d. Residues, ends and D or L forms follow the SMILES beside them. No end group written: not given here. hPhe = N[C@@H](CCc1ccccc1)C(=O)O; NMeD = CN[C@@H](CC(=O)O)C(=O)O; NMeL = CN[C@@H](CC(C)C)C(=O)O; NMeV = CN[C@H](C(=O)O)C(C)C

Each compound was assayed against T1, human ribonucleotide reductase (hRR) (Homo sapiens, UniProt P23921) (assay: Inhibition of Human Ribonucleotide Reductase Assay). Details: Hela cell extract; conversion of (14C)CDP to (14C)dCDP; text of Example 3; read-out: IC50.
T1 construct: Preparation of cell extract containing human ribonucleotide reductase (hRR); endogenous in cells; host or cells: HeLa cells (ATCC CCL 2.2); extract cleared with streptomycin sulphate, 50% ammonium sulphate cut, diafiltered
T1 sequence (P23921 1-792): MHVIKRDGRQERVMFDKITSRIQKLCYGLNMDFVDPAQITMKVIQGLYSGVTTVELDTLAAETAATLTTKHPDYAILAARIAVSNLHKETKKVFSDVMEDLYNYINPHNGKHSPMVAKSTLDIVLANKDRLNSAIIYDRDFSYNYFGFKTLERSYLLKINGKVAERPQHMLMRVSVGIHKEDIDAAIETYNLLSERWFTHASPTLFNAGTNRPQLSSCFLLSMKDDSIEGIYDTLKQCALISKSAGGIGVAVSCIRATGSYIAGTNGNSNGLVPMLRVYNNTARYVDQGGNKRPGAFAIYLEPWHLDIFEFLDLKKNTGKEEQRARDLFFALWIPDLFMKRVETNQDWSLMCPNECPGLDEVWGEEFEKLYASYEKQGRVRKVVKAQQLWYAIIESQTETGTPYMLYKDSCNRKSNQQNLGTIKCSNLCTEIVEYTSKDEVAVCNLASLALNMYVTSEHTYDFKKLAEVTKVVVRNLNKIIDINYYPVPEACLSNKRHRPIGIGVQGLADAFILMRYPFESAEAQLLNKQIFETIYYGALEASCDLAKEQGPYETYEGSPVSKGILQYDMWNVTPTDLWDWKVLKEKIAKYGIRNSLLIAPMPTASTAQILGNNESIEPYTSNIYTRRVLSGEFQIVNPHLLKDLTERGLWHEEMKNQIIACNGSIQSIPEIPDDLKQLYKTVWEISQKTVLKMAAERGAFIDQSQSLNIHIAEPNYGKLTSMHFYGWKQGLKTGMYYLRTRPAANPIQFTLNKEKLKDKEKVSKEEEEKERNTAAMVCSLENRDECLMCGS
Type: biochemical
Method: Inhibition of Human Ribonucleotide Reductase Assay
(a) Cell line: Hela cells (ATCC CCL 2.2), human epitheloid carcinoma, cervix.
(b) Cell culture: Cells were incubated in a medium consisting of Iscove's Modified Dulbecco Medium, pH 7.2-7.4 (Gibco Canada Inc., Burlington, ON, Canada) supplemented with 10% by volume of fetal calf serum, heat inactivated (Gibco Canada Inc.), 1 millimolar (mM) of sodium pyruvate, 100 units/ml of penicillin G, 100 μg/ml of streptomycin and 2 mM of L-glutamine. The incubation was done in a 1 l spinner flask at 37° C. under a mixture of 5% CO2 in air. Cell-containing media (75% of culture volume) was withdrawn semicontinuously at 24-48 h intervals. Fresh media was added each time to replace withdrawn media. Final cell density at harvest was 1-2×10^6 cells/ml.
(c) Preparation of cell extract containing human ribonucleotide reductase (hRR)
The harvested culture media obtained above was subjected to low speed centrifugation. The resulting cell pellet was processed according to the following steps. (All steps were performed at 4° C. unless noted otherwise.) […]
(a) Standard Reaction Mixture […]
The activity of RR was quantitated by following the conversion of radiolabeled cytidine diphosphate to radiolabeled deoxycytidine diphosphate, i.e. (^14 C)CDP to (^14 C)dCDP. The amount of cell extract utilized in the assay was that which gave a linear response between enzyme concentration and CDP conversion (ca. 200 μg of protein per assay).
After addition of the cell extract, the assay mixture was incubated at 37° C. for 30 min. The reaction was stopped by immersing the vessel containing the assay mixture in boiling water for 4 min. Nucleotides in the supernatant were then converted to nucleosides by the addition of excess Crotalus adamenteus snake venom (ca. 20 μl of a preparation of 40 mg/ml of the venom in an aqueous solution of 14 mM tris(hydroxymethyl)aminomethane (pH 8.8) and 46.5 mM MgCl2), followed by incubating the resulting mixture for 60 min at 37° C. The enzymatic reaction was stopped by immersing the vessel containing the reaction mixture in boiling waster for 6 min. Thereafter, the mixture is centrifuged at 10,000 rpm on a clinical centrifuge for 5 min.
The resulting free nucleosides, cytidine (C) and deoxycytidine (dC), in the supernatant were separated by thin layer chromatography on polyethyleneimine-cellulose plates pretreated with boric acid. Elution of 5 μl samples was accomplished using a solution of ethanol/20 mM aqueous ammonium formate (1:1), pH 4.7. Quantitation of radiolabel migrating as C and dC was carried out using radioanalytical imaging equipment (AMBIS Systems Inc., San Diego, CA, USA). substrate conversion was calculated as: [formula]
A unit of ribonucleotide reductase activity is defined as that amount which reduces one nmole of CDP/minute under the conditions described above. Activity was calculated from substrate conversion using the following relationship: [formula]
The conversion factor for the Hela assay was 0.108. Specific activity was expressed as units/mg of protein in the incubation mixture.
The peptides of formula 1 were tested at a minimum of three concentrations. IC50 's were estimated from graphs plotting the results for each peptide, the IC50 being the concentration of the peptide in micromoles (μM) producing 50% of the maximal inhibition of the enzyme.

| Compound | IC50 [µM] |
| --- | --- |
| Ac-FTLDADF [Example 2, AcPhe-Thr-Leu-Asp-Ala-Asp-Phe-OH] | 38 |

Same assay, conditions: Hela cell extract; table of Example 4; read-out: IC50

| Compound | IC50 [µM] |
| --- | --- |
| Ac-NSFTLDADF-OH [Ac--Asn--Ser--Phe--Thr--Leu--Asp--Ala--Asp--Phe--OH] | 33 |
| Ac-TENSFTLDADF [AcThr--Glu--Asn--Ser--Phe--Thr--Leu--Asp--Ala--Asp--Phe--OH] | 83 |
| H-NSTENSFTLDADF-OH [H--Asn--Ser--Thr--Glu--Asn--Ser--Phe--Thr--Leu--Asp--Ala--Asp--Phe--OH] | 62 |
| H-TENSFTLDADF-OH [H--Thr--Glu--Asn--Ser--Phe--Thr--Leu--Asp--Ala--Asp--Phe--OH] | 95 |
| H-VISNSTENSFTLDADF-OH [H--Val--Ile--Ser--Asn--Ser--Thr--Glu--Asn--Ser--Phe--Thr--Leu--Asp--Ala--Asp--Phe--OH] | 49 |

Same assay, conditions: inhibition of human RR assay; list after the table; unit μM; read-out: IC50 (shown in parenthesis)

| Compound | IC50 [µM] |
| --- | --- |
| CC(=O)N[C@@H](Cc1ccccc1)C(=O)N(C)[C@H](C(=O)N[C@@H](CC(C)C)C(=O)N[C@@H](CC(=O)O)C(=O)N[C@@H](C)C(=O)N[C@@H](CC(=O)O)C(=O)N[C@@H](Cc1ccccc1)C(=O)O)C(C)C [AcPhe-N-Me-Val-Leu-Asp-Ala-Asp-Phe-OH] (Ac-F[NMeV]LDADF-OH) | 48 |
| CC(=O)N[C@@H](Cc1ccccc1)C(=O)N[C@H](C(=O)N[C@@H](CC(C)C)C(=O)N[C@@H](CC(=O)N(C)C)C(=O)N[C@@H](C)C(=O)N[C@@H](CC(=O)O)C(=O)N[C@@H](Cc1ccccc1)C(=O)O)[C@@H](C)O [AcPhe-Thr-Leu-Asp(NMe2)-Ala-Asp-Phe-OH] (Ac-FTLD(NMe2)ADF-OH) | 58 |
| CC(=O)N[C@@H](Cc1ccccc1)C(=O)N[C@H](C(=O)N[C@@H](CC(C)C)C(=O)N[C@@H](CC(=O)O)C(=O)N[C@@H](C)C(=O)N[C@@H](CC(=O)O)C(=O)N[C@@H](CCc1ccccc1)C(=O)O)[C@@H](C)O [AcPhe-Thr-Leu-Asp-Ala-Asp-homoPhe-OH] (Ac-FTLDAD[hPhe]-OH) | 58 |
| CC(=O)N[C@@H](Cc1ccccc1)C(=O)N[C@H](C(=O)N[C@@H](CC(C)C)C(=O)N[C@@H](CC(=O)O)C(=O)N[C@@H](C)C(=O)N[C@H](CC(=O)O)C(=O)N[C@@H](Cc1ccccc1)C(=O)O)[C@@H](C)O [AcPhe-Thr-Leu-Asp-Ala-D-Asp-Phe-OH] (Ac-FTLDA[dD]F-OH) | 280 |
| CC(=O)N[C@@H](Cc1ccccc1)C(=O)N[C@H](C(=O)N[C@@H](CC(C)C)C(=O)N[C@@H](CC(=O)O)C(=O)N[C@@H](C)C(=O)N(C)[C@@H](CC(=O)O)C(=O)N[C@@H](Cc1ccccc1)C(=O)O)[C@@H](C)O [AcPhe-Thr-Leu-Asp-Ala-N-Me-Asp-Phe-OH] (Ac-FTLDA[NMeD]F-OH) | 46 |
| CC(=O)N[C@@H](Cc1ccccc1)C(=O)N[C@H](C(=O)N[C@@H](CC(C)C)C(=O)N[C@@H](CC(=O)O)C(=O)N[C@H](C)C(=O)N[C@@H](CC(=O)O)C(=O)N[C@@H](Cc1ccccc1)C(=O)O)[C@@H](C)O [AcPhe-Thr-Leu-Asp-D-Ala-Asp-Phe-OH] (Ac-FTLD[dA]DF-OH) | 460 |
| CC(=O)N[C@@H](Cc1ccccc1)C(=O)N[C@H](C(=O)N[C@@H](CC(C)C)C(=O)N[C@H](CC(=O)O)C(=O)N[C@@H](C)C(=O)N[C@@H](CC(=O)O)C(=O)N[C@@H](Cc1ccccc1)C(=O)O)[C@@H](C)O [AcPhe-Thr-Leu-D-Asp-Ala-Asp-Phe-OH] (Ac-FTL[dD]ADF-OH) | 200 |
| CC(=O)N[C@@H](Cc1ccccc1)C(=O)N[C@H](C(=O)N(C)[C@@H](CC(C)C)C(=O)N[C@@H](CC(=O)O)C(=O)N[C@@H](C)C(=O)N[C@@H](CC(=O)O)C(=O)N[C@@H](Cc1ccccc1)C(=O)O)[C@@H](C)O [AcPhe-Thr-N-Me-Leu-Asp-Ala-Asp-Phe-OH] (Ac-FT[NMeL]DADF-OH) | 23 |
| Ac-FTFNEDF [AcPhe-Thr-Phe-Asn-Glu-Asp-Phe-OH] | 150 |
| Ac-FTLDEDF [AcPhe-Thr-Leu-Asp-Glu-Asp-Phe-OH] | 28 |
| Ac-FTLDVDF [AcPhe-Thr-Leu-Asp-Val-Asp-Phe-OH] | 39 |
| Ac-FTLFADF [AcPhe-Thr-Leu-Phe-Ala-Asp-Phe-OH] | 73 |
| Ac-FTLGADF [AcPhe-Thr-Leu-Gly-Ala-Asp-Phe-OH] | 150 |
| Ac-FTLNADF [AcPhe-Thr-Leu-Asn-Ala-Asp-Phe-OH] | 31 |
| Ac-FTLQADF [AcPhe-Thr-Leu-Gln-Ala-Asp-Phe-OH] | 120 |
| H-PTENSFTLDADF-OH [H-Pro-Thr-Glu-Asn-Ser-Phe-Thr-Leu-Asp-Ala-Asp-Phe-OH] | 41 |
| H-SPTENSFTLDADF-OH [H-Ser-Pro-Thr-Glu-Asn-Ser-Phe-Thr-Leu-Asp-Ala-Asp-Phe-OH] | 29 |
| H-SSPTENSFTLDADF-OH [H-Ser-Ser-Pro-Thr-Glu-Asn-Ser-Phe-Thr-Leu-Asp-Ala-Asp-Phe-OH] | 26 |
